{"source": "patent US4452778A", "about": "“Synergistic antibacterial compositions and method of treatment of infections caused by multiple antibiotic-resistant organisms” (Eli Lilly and Company, priority 1981, dated 1984)", "key": {"E. coli": {"tested_on": "E. coli", "test": "Checkerboard broth dilution synergy study (mic)", "assay_type": "cell-based", "conditions": "Table II; for MIC: Escherichia coli, read-out: mic, drug alone"}, "Proteus mirabilis": {"tested_on": "Proteus mirabilis", "test": "Checkerboard broth dilution synergy study (mic)", "assay_type": "cell-based", "conditions": "Table II, strain Allen"}, "Pseudomonas maltophilia": {"tested_on": "Pseudomonas maltophilia", "test": "Checkerboard broth dilution synergy study (mic)", "assay_type": "cell-based", "conditions": "for MIC: Stenotrophomonas maltophilia, read-out: mic, drug alone"}, "Pseudomonas pseudomallei": {"tested_on": "Pseudomonas pseudomallei", "test": "microbe, parasite or virus in culture", "assay_type": "cell-based"}, "Serratia marcescens": {"tested_on": "Serratia marcescens", "test": "Checkerboard broth dilution synergy study (mic)", "assay_type": "cell-based", "conditions": "for MIC: Serratia marcescens, read-out: mic, drug alone"}, "clinical": {"test": "clinical", "conditions": "in vivo, iv, mean serum concentration"}, "E. cloacae": {"tested_on": "E. cloacae", "test": "Checkerboard broth dilution synergy study (mic)", "assay_type": "cell-based", "conditions": "for MIC: Enterobacter cloacae, read-out: mic, drug alone"}}, "note": "Read-outs that look alike come from different tables or passages of the source."}
{"smiles": "COC1(NC(=O)C(C(=O)O)c2ccc(O)cc2)C(=O)N2C(C(=O)O)=C(CSc3nnnn3C)COC21", "note": "(stereo not shown) [1-oxa compound I, moxalactam]", "values": [{"measurement": "MIC", "setting": "E. coli; strain Briley", "value": 0.12, "unit": "µg/mL"}, {"measurement": "MIC", "setting": "E. coli; strain Dill", "value": 0.25, "unit": "µg/mL"}, {"measurement": "mic of each drug in combination I + P", "setting": "E. coli; strain 46-2", "value": "< 0.12", "unit": "µg/mL"}, {"measurement": "mic of each drug in combination I + T", "setting": "E. coli; strain 46-2", "value": "< 0.12", "unit": "µg/mL"}, {"measurement": "mic of each drug in combination I + T", "setting": "E. coli; strain 77-3", "value": "< 0.12", "unit": "µg/mL"}, {"measurement": "mic of each drug in combination I + T", "setting": "E. coli; strain 136-3", "value": "< 0.12", "unit": "µg/mL"}, {"measurement": "mic of each drug in combination I + P", "setting": "E. coli; strain 1253", "value": 0.5, "unit": "µg/mL"}, {"measurement": "mic of each drug in combination I + T", "setting": "E. coli; strain 1253", "value": "< 0.12", "unit": "µg/mL"}, {"measurement": "mic of each drug in combination I + T", "setting": "E. coli; strain 1260", "value": "< 0.12", "unit": "µg/mL"}, {"measurement": "mic of each drug in combination I + P", "setting": "E. coli; strain 1262", "value": "< 0.12", "unit": "µg/mL"}, {"measurement": "mic of each drug in combination I + T", "setting": "E. coli; strain 1262", "value": "< 0.12", "unit": "µg/mL"}, {"measurement": "mic of each drug in combination I + P", "setting": "E. coli; strain 1415", "value": "< 0.12", "unit": "µg/mL"}, {"measurement": "mic of each drug in combination I + T", "setting": "E. coli; strain 1415", "value": "< 0.12", "unit": "µg/mL"}, {"measurement": "mic of each drug in combination I + P", "setting": "E. coli; strain Briley", "value": "< 0.12", "unit": "µg/mL"}, {"measurement": "mic of each drug in combination I + T", "setting": "E. coli; strain Briley", "value": "< 0.12", "unit": "µg/mL"}, {"measurement": "mic of each drug in combination I + T", "setting": "E. coli; strain Dill", "value": "< 0.12", "unit": "µg/mL"}, {"measurement": "MIC", "setting": "Proteus mirabilis; Proteus mirabilis, read-out: mic, drug alone", "value": 0.06, "unit": "µg/mL"}, {"measurement": "mic of each drug in combination I + T", "setting": "Proteus mirabilis", "value": "< 0.12", "unit": "µg/mL"}, {"measurement": "MIC", "setting": "Pseudomonas maltophilia; Table II, strain 10", "value": 32, "unit": "µg/mL"}, {"measurement": "MIC", "setting": "Pseudomonas maltophilia; Table II, strain 11", "value": 4, "unit": "µg/mL"}, {"measurement": "MIC", "setting": "Pseudomonas maltophilia; Table II, strain 505", "value": 8, "unit": "µg/mL"}, {"measurement": "MIC", "setting": "Pseudomonas maltophilia; Table III, isolate 10", "value": 32, "unit": "µg/mL"}, {"measurement": "MIC", "setting": "Pseudomonas maltophilia; Table III, isolate 505", "value": 8, "unit": "µg/mL"}, {"measurement": "mic of each drug in combination I + T", "setting": "Pseudomonas maltophilia; Table II, strain 10", "value": 4, "unit": "µg/mL"}, {"measurement": "mic of each drug in combination I + T", "setting": "Pseudomonas maltophilia; Table II, strain 11", "value": 0.5, "unit": "µg/mL"}, {"measurement": "mic of each drug in combination I + T", "setting": "Pseudomonas maltophilia; Table II, strain 505", "value": 0.6, "unit": "µg/mL"}, {"measurement": "mic of each drug in combination I + A", "setting": "Pseudomonas maltophilia; Table III, isolate 10", "value": 8, "unit": "µg/mL"}, {"measurement": "mic of each drug in combination I + A", "setting": "Pseudomonas maltophilia; Table III, isolate 505", "value": 2, "unit": "µg/mL"}, {"measurement": "MIC", "setting": "Pseudomonas pseudomallei; Burkholderia pseudomallei, read-out: mic, drug alone", "value": 32, "unit": "µg/mL"}, {"measurement": "mic of each drug in combination I + A", "setting": "Pseudomonas pseudomallei; Table III, isolate not named", "value": 4, "unit": "µg/mL"}, {"measurement": "MIC", "setting": "Serratia marcescens; Table II, strain 100", "value": 0.25, "unit": "µg/mL"}, {"measurement": "MIC", "setting": "Serratia marcescens; Table II, strain 302-2", "value": 1, "unit": "µg/mL"}, {"measurement": "MIC", "setting": "Serratia marcescens; Table II, strain 796", "value": 8, "unit": "µg/mL"}, {"measurement": "MIC", "setting": "Serratia marcescens; Table II, strain 14142", "value": 1, "unit": "µg/mL"}, {"measurement": "MIC", "setting": "Serratia marcescens; Table II, strain Townsend", "value": 4, "unit": "µg/mL"}, {"measurement": "MIC", "setting": "Serratia marcescens; Table III, isolate 463-2", "value": 8, "unit": "µg/mL"}, {"measurement": "MIC", "setting": "Serratia marcescens; Table III, isolate 606", "value": 4, "unit": "µg/mL"}, {"measurement": "MIC", "setting": "Serratia marcescens; Table III, isolate 1414", "value": 1, "unit": "µg/mL"}, {"measurement": "MIC", "setting": "Serratia marcescens; Table III, isolate B377", "value": 8, "unit": "µg/mL"}, {"measurement": "MIC", "setting": "Serratia marcescens; Table III, isolate Ziegler", "value": 4, "unit": "µg/mL"}, {"measurement": "mic of each drug in combination I + P", "setting": "Serratia marcescens; Table II, strain 100", "value": 0.12, "unit": "µg/mL"}, {"measurement": "mic of each drug in combination I + T", "setting": "Serratia marcescens; Table II, strain 100", "value": 0.12, "unit": "µg/mL"}, {"measurement": "mic of each drug in combination I + P", "setting": "Serratia marcescens; Table II, strain 302-2", "value": 0.12, "unit": "µg/mL"}, {"measurement": "mic of each drug in combination I + T", "setting": "Serratia marcescens; Table II, strain 302-2", "value": 0.12, "unit": "µg/mL"}, {"measurement": "mic of each drug in combination I + P", "setting": "Serratia marcescens; Table II, strain 796", "value": 2, "unit": "µg/mL"}, {"measurement": "mic of each drug in combination I + T", "setting": "Serratia marcescens; Table II, strain 796", "value": 2, "unit": "µg/mL"}, {"measurement": "mic of each drug in combination I + P", "setting": "Serratia marcescens; Table II, strain 14142", "value": 0.12, "unit": "µg/mL"}, {"measurement": "mic of each drug in combination I + T", "setting": "Serratia marcescens; Table II, strain 14142", "value": 0.25, "unit": "µg/mL"}, {"measurement": "mic of each drug in combination I + P", "setting": "Serratia marcescens; Table II, strain Townsend", "value": 2, "unit": "µg/mL"}, {"measurement": "mic of each drug in combination I + T", "setting": "Serratia marcescens; Table II, strain Townsend", "value": 1, "unit": "µg/mL"}, {"measurement": "mic of each drug in combination I + A", "setting": "Serratia marcescens; Table III, isolate 463-2", "value": "< 0.06", "unit": "µg/mL"}, {"measurement": "mic of each drug in combination I + A", "setting": "Serratia marcescens; Table III, isolate 606", "value": 0.5, "unit": "µg/mL"}, {"measurement": "mic of each drug in combination I + A", "setting": "Serratia marcescens; Table III, isolate 1414", "value": 0.06, "unit": "µg/mL"}, {"measurement": "mic of each drug in combination I + A", "setting": "Serratia marcescens; Table III, isolate B377", "value": 0.12, "unit": "µg/mL"}, {"measurement": "mic of each drug in combination I + A", "setting": "Serratia marcescens; Table III, isolate Ziegler", "value": 0.06, "unit": "µg/mL"}, {"measurement": "concentration at 11 h", "setting": "clinical", "value": 1200, "unit": "ng/mL"}, {"measurement": "MIC", "setting": "E. cloacae; Table II, strain 1246", "value": 0.25, "unit": "µg/mL"}, {"measurement": "MIC", "setting": "E. cloacae; Table II, strain 1253", "value": 4, "unit": "µg/mL"}, {"measurement": "MIC", "setting": "E. cloacae; Table II, strain 1415", "value": 0.12, "unit": "µg/mL"}, {"measurement": "MIC", "setting": "E. cloacae; Table II, strain B293", "value": 0.5, "unit": "µg/mL"}, {"measurement": "MIC", "setting": "E. cloacae; Table III, isolate 228", "value": 0.12, "unit": "µg/mL"}, {"measurement": "MIC", "setting": "E. cloacae; Table III, isolate 1253", "value": 4, "unit": "µg/mL"}, {"measurement": "MIC", "setting": "E. cloacae; Table III, isolate 1296", "value": 0.25, "unit": "µg/mL"}, {"measurement": "MIC", "setting": "E. cloacae; Table III, isolate 1415", "value": 0.12, "unit": "µg/mL"}, {"measurement": "MIC", "setting": "E. cloacae; Table III, isolate McQuinn", "value": 0.25, "unit": "µg/mL"}, {"measurement": "mic of each drug in combination I + T", "setting": "E. cloacae; Table II, strain 1246", "value": "< 0.12", "unit": "µg/mL"}, {"measurement": "mic of each drug in combination I + P", "setting": "E. cloacae; Table II, strain 1253", "value": 2, "unit": "µg/mL"}, {"measurement": "mic of each drug in combination I + T", "setting": "E. cloacae; Table II, strain 1253", "value": 0.25, "unit": "µg/mL"}, {"measurement": "mic of each drug in combination I + T", "setting": "E. cloacae; Table II, strain 1415", "value": 0.12, "unit": "µg/mL"}, {"measurement": "mic of each drug in combination I + P", "setting": "E. cloacae; Table II, strain B293", "value": 0.25, "unit": "µg/mL"}, {"measurement": "mic of each drug in combination I + T", "setting": "E. cloacae; Table II, strain B293", "value": 0.12, "unit": "µg/mL"}, {"measurement": "mic of each drug in combination I + A", "setting": "E. cloacae; Table III, isolate 228", "value": "< 0.06", "unit": "µg/mL"}, {"measurement": "mic of each drug in combination I + A", "setting": "E. cloacae; Table III, isolate 1253", "value": "< 0.06", "unit": "µg/mL"}, {"measurement": "mic of each drug in combination I + A", "setting": "E. cloacae; Table III, isolate 1296", "value": 0.06, "unit": "µg/mL"}, {"measurement": "mic of each drug in combination I + A", "setting": "E. cloacae; Table III, isolate 1415", "value": 0.12, "unit": "µg/mL"}, {"measurement": "mic of each drug in combination I + A", "setting": "E. cloacae; Table III, isolate McQuinn", "value": 0.12, "unit": "µg/mL"}]}
